The text below walks through data of ChEMBL document CHEMBL1255175, “Synthesis, antimicrobial, and mosquito larvicidal activity of 1-aryl-4-methyl-3,6-bis-(5-methylisoxazol-3-yl)-2-thioxo-2,3,6,10b-tetrahydro-1H-pyrimido[5,4-c]quinolin-5-ones” (2010).

In brackets after ≈: the same amount, converted by molar mass.

For orientation: MIC means the smallest concentration in the dilution series that meets the test's criterion for growth inhibition. Read a low MIC as a more susceptible organism. What is called LC50 is the concentration that kills 50% of the test population.

Common to all, as to type: functional
Assay [1] is described as follows: Antifungal activity against Chrysosporium tropicum MTCC 2821 at 30 ug/ml.
In assay [2] the test system is Chromobacterium violaceum. Briefly: Antimicrobial activity against Chromobacterium violaceum MTCC 2656.
The subject of the next assay is Staphylococcus aureus. Briefly: Antimicrobial activity against Staphylococcus aureus MTCC 96.
The subject of assay [3] is Aspergillus niger. The experiment in a line: Antifungal activity against Aspergillus niger MTCC 282 at 30 ug/ml. The following applies: read-out: DIZ.
Another assay concerns Culex quinquefasciatus. The experiment in a line: Insecticidal activity against Culex quinquefasciatus 4th instar larvae. The settings on record: for LC50: Culex quinquefasciatus.
Assay [4] deals with Curvularia lunata. Briefly: Antifungal activity against Curvularia lunata MTCC 2030 at 30 ug/ml. The settings on record: read-out: DIZ.
A further assay has as its system Pseudomonas aeruginosa. The experiment in a line: Antimicrobial activity against Pseudomonas aeruginosa MTCC 741.
The test system of assay [5] is Fusarium verticillioides. Briefly: Antifungal activity against Fusarium moniliforme MTCC 1848 at 30 ug/ml. The settings on record: read-out: DIZ.
In the next assay the test system is Klebsiella aerogenes. Briefly: Antimicrobial activity against Klebsiella aerogenes MTCC 39.
In assay [6] the test system is Rhizopus arrhizus. The experiment in a line: Antifungal activity against Rhizopus oryzae MTCC 262 at 100 ug/ml. The settings on record: read-out: DIZ.
The test system of assay [7] is Aspergillus niger. Briefly: Antifungal activity against Aspergillus niger MTCC 282 at 100 ug/ml. The settings on record: read-out: DIZ.
Assay [8] relates to Curvularia lunata. The experiment in a line: Antifungal activity against Curvularia lunata MTCC 2030 at 100 ug/ml. The following applies: read-out: DIZ.
Assay [9] can be described thus: Antifungal activity against Chrysosporium tropicum MTCC 2821 at 100 ug/ml.
The test system of another assay is Bacillus subtilis. Briefly: Antimicrobial activity against Bacillus subtilis MTCC 441.
The subject of assay [10] is Fusarium verticillioides. Briefly: Antifungal activity against Fusarium moniliforme MTCC 1848 at 100 ug/ml. The following applies: read-out: DIZ.
Assay [11] deals with Lysinibacillus sphaericus. Briefly: Antimicrobial activity against Bacillus sphaericus MTCC 511.
In assay [12] the test system is Rhizopus arrhizus. The experiment in a line: Antifungal activity against Rhizopus oryzae MTCC 262 at 30 ug/ml. The following applies: read-out: DIZ.

On to `CC1=C2C(=O)N(c3cc(C)on3)c3ccccc3C2N(c2ccc(Br)cc2)C(=S)N1c1cc(C)on1` (stereo not given), for which the inhibition zone (IZ) came out at 25 mm in assay [1] and 45 mm in [9]. Further, the MIC in [2] amounted to 5 µg/mL (≈ 8.89 µM); in the assay on Staphylococcus aureus it was 9 µg/mL (≈ 16 µM); against Pseudomonas aeruginosa, 9 µg/mL (≈ 16 µM); in the assay with Klebsiella aerogenes it was 7 µg/mL (≈ 12.4 µM); against Bacillus subtilis, 6 µg/mL (≈ 10.7 µM); in assay [11], 8 µg/mL (≈ 14.2 µM). The zone of inhibition at 30 µg/mL with Aspergillus niger [3] worked out at 40 mm; in the assay with Curvularia lunata [4] it was 35 mm; in the assay with Fusarium verticillioides [5], 25 mm; in the assay with Rhizopus arrhizus [12], 39 mm. In the assay on Culex quinquefasciatus, this compound registered an LC90 of 1.8 µg/mL (≈ 3.2 µM). The LC50 with Culex quinquefasciatus worked out at 0.88 µg/mL (≈ 1.56 µM). For the same compound, the zone of inhibition at 100 µg/mL with Rhizopus arrhizus [6] was determined as 45 mm; in the assay on Aspergillus niger [7] it was 50 mm; in the assay with Curvularia lunata [8] it was 45 mm; in the assay with Fusarium verticillioides [10] it was 40 mm.
As to `O=C(O)c1cn(C2CC2)c2cc(N3CCNCC3)c(F)cc2c1=O` [CIPROFLOXACIN], the MIC was found to be 25 µg/mL (≈ 75.4 µM) in assay [2], 30 µg/mL (≈ 90.5 µM) with Pseudomonas aeruginosa, 20 µg/mL (≈ 60.4 µM) in the assay with Bacillus subtilis and 20 µg/mL (≈ 60.4 µM) in [11].
Turning to `COc1ccc(N2C(=S)N(c3cc(C)on3)C(C)=C3C(=O)N(c4cc(C)on4)c4ccccc4C32)cc1` (stereo not given), in [1], the inhibition zone (IZ) was found to be 40 mm. The MIC in assay [2] came out at 18 µg/mL (≈ 35 µM); in the assay with Staphylococcus aureus it was 10 µg/mL (≈ 19.5 µM); against Pseudomonas aeruginosa, 15 µg/mL (≈ 29.2 µM); in the assay with Klebsiella aerogenes, 14 µg/mL (≈ 27.3 µM); against Bacillus subtilis it was 20 µg/mL (≈ 38.9 µM); in [11], 15 µg/mL (≈ 29.2 µM). Also, the zone of inhibition at 30 µg/mL in the assay on Aspergillus niger [3] was 35 mm; with Curvularia lunata [4] it was 40 mm; in the assay with Fusarium verticillioides [5], 35 mm; in the assay with Rhizopus arrhizus [12], 45 mm. In the assay on Culex quinquefasciatus, the LC90 is 3.65 µg/mL (≈ 7.11 µM). Moreover, the LC50 in the assay on Culex quinquefasciatus is 2.09 µg/mL (≈ 4.07 µM). In addition, the zone of inhibition at 100 µg/mL amounted to 65 mm in the assay on Rhizopus arrhizus [6], 60 mm with Aspergillus niger [7], 60 mm in the assay with Curvularia lunata [8] and 60 mm in the assay on Fusarium verticillioides [10].
In turn, `CC1=C2C(=O)N(c3cc(C)on3)c3ccccc3C2N(c2ccc(C)cc2)C(=S)N1c1cc(C)on1` (stereo not given) returned an inhibition zone (IZ) in assay [1] of 40 mm. Further, the MIC in [2] was determined as 6 µg/mL (≈ 12.1 µM); with Staphylococcus aureus, 10 µg/mL (≈ 20.1 µM); against Pseudomonas aeruginosa it was 10 µg/mL (≈ 20.1 µM); against Klebsiella aerogenes, 8 µg/mL (≈ 16.1 µM); with Bacillus subtilis, 16 µg/mL (≈ 32.2 µM); in [11], 11 µg/mL (≈ 22.1 µM). Besides, the zone of inhibition at 30 µg/mL in the assay with Aspergillus niger [3] was 40 mm; with Curvularia lunata [4], 45 mm; with Fusarium verticillioides [5], 45 mm; in the assay with Rhizopus arrhizus [12], 45 mm. The LC90 with Culex quinquefasciatus amounted to 2.41 µg/mL (≈ 4.84 µM). The compound also yielded an LC50 in the assay with Culex quinquefasciatus of 0.85 µg/mL (≈ 1.71 µM). Further, the zone of inhibition at 100 µg/mL in the assay with Rhizopus arrhizus [6] came out at 65 mm; in the assay on Aspergillus niger [7], 60 mm; with Curvularia lunata [8] it was 65 mm; in the assay with Fusarium verticillioides [10] it was 60 mm.
With `CC1=C2C(=O)N(c3cc(C)on3)c3ccccc3C2N(c2ccc(Cl)cc2)C(=S)N1c1cc(C)on1` (stereo not given), the inhibition zone (IZ) in [1] turned out to be 30 mm; in assay [9], 45 mm. The MIC in [2] came out at 13 µg/mL (≈ 25.1 µM); against Staphylococcus aureus it was 15 µg/mL (≈ 29 µM); in the assay on Pseudomonas aeruginosa it was 20 µg/mL (≈ 38.6 µM); with Klebsiella aerogenes, 15 µg/mL (≈ 29 µM); in the assay with Bacillus subtilis, 16 µg/mL (≈ 30.9 µM); in [11], 15 µg/mL (≈ 29 µM). The zone of inhibition at 30 µg/mL was found to be 25 mm in the assay with Aspergillus niger [3], 35 mm in the assay on Curvularia lunata [4], 30 mm with Fusarium verticillioides [5] and 40 mm in the assay with Rhizopus arrhizus [12]. The LC90 with Culex quinquefasciatus amounted to 4 µg/mL (≈ 7.72 µM). Further, the LC50 in the assay with Culex quinquefasciatus was found to be 1.01 µg/mL (≈ 1.95 µM). The zone of inhibition at 100 µg/mL was determined as 50 mm in the assay on Rhizopus arrhizus [6], 40 mm in the assay with Aspergillus niger [7], 50 mm in the assay on Curvularia lunata [8] and 45 mm in the assay with Fusarium verticillioides [10].
With `Clc1ccccc1C(c1ccccc1)(c1ccccc1)n1ccnc1` [CLOTRIMAZOLE], the zone of inhibition at 100 µg/mL is 33 mm with Rhizopus arrhizus [6], 26 mm in the assay with Aspergillus niger [7], 35 mm with Curvularia lunata [8] and 25 mm in the assay with Fusarium verticillioides [10]. The compound also showed an inhibition zone (IZ) in [9] of 30 mm.
With `CC1=C2C(=O)N(c3cc(C)on3)c3ccccc3C2N(c2ccccc2)C(=S)N1c1cc(C)on1` (stereo not given), the inhibition zone (IZ) in [1] is 30 mm; in [9], 45 mm. Also, the MIC amounted to 18 µg/mL (≈ 37.2 µM) in [2]; 15 µg/mL (≈ 31 µM) in the assay on Staphylococcus aureus; 20 µg/mL (≈ 41.4 µM) in the assay on Pseudomonas aeruginosa; 13 µg/mL (≈ 26.9 µM) against Klebsiella aerogenes; 19 µg/mL (≈ 39.3 µM) against Bacillus subtilis; 15 µg/mL (≈ 31 µM) in assay [11]. Also, the zone of inhibition at 30 µg/mL in the assay with Aspergillus niger [3] was found to be 25 mm; in the assay on Curvularia lunata [4], 35 mm; in the assay with Fusarium verticillioides [5], 30 mm; in the assay on Rhizopus arrhizus [12] it was 40 mm. Also, the LC90 in the assay with Culex quinquefasciatus was found to be 3.1 µg/mL (≈ 6.41 µM). Moreover, the 50% lethal concentration (LC50) in the assay on Culex quinquefasciatus was 1.02 µg/mL (≈ 2.11 µM). Besides, the zone of inhibition at 100 µg/mL in the assay on Rhizopus arrhizus [6] came out at 50 mm; in the assay on Aspergillus niger [7], 45 mm; with Curvularia lunata [8] it was 40 mm; in the assay on Fusarium verticillioides [10] it was 45 mm.
In the case of `CC1=C2C(=O)N(c3cc(C)on3)c3ccccc3C2N(c2ccccc2Cl)C(=S)N1c1cc(C)on1` (stereo not given), the results for the inhibition zone (IZ) in [1] and in assay [9] were 25 mm and 40 mm, respectively. In addition, the MIC in assay [2] came to 6 µg/mL (≈ 11.6 µM); with Staphylococcus aureus, 9 µg/mL (≈ 17.4 µM); in the assay on Pseudomonas aeruginosa it was 5 µg/mL (≈ 9.65 µM); against Klebsiella aerogenes, 8 µg/mL (≈ 15.4 µM); against Bacillus subtilis, 8 µg/mL (≈ 15.4 µM); in [11], 10 µg/mL (≈ 19.3 µM). In addition, the zone of inhibition at 30 µg/mL in the assay on Aspergillus niger [3] came to 30 mm; in the assay with Curvularia lunata [4], 40 mm; in the assay with Fusarium verticillioides [5] it was 30 mm; with Rhizopus arrhizus [12], 35 mm. The compound further showed an LC90 in the assay with Culex quinquefasciatus of 1 µg/mL (≈ 1.93 µM). The compound also displayed an LC50 with Culex quinquefasciatus of 0.98 µg/mL (≈ 1.89 µM). Besides, the zone of inhibition at 100 µg/mL in the assay on Rhizopus arrhizus [6] came out at 50 mm; in the assay with Aspergillus niger [7], 55 mm; in the assay on Curvularia lunata [8], 55 mm; in the assay with Fusarium verticillioides [10], 45 mm.
For `COc1cccc(N2C(=S)N(c3cc(C)on3)C(C)=C3C(=O)N(c4cc(C)on4)c4ccccc4C32)c1` (stereo not given), the inhibition zone (IZ) in assay [1] turned out to be 28 mm; in [9], 40 mm. The MIC was 11 µg/mL (≈ 21.4 µM) in assay [2]; 12 µg/mL (≈ 23.4 µM) in the assay on Staphylococcus aureus; 8 µg/mL (≈ 15.6 µM) with Pseudomonas aeruginosa; 13 µg/mL (≈ 25.3 µM) in the assay on Klebsiella aerogenes; 18 µg/mL (≈ 35 µM) against Bacillus subtilis; 18 µg/mL (≈ 35 µM) in [11]. The zone of inhibition at 30 µg/mL in the assay on Aspergillus niger [3] is 20 mm; with Curvularia lunata [4] it was 35 mm; in the assay with Fusarium verticillioides [5], 35 mm; in the assay with Rhizopus arrhizus [12], 40 mm. The compound also came in with an LC90 with Culex quinquefasciatus of 2.41 µg/mL (≈ 4.69 µM). Besides, in the assay on Culex quinquefasciatus, the LC50 was 1.25 µg/mL (≈ 2.43 µM). In addition, the zone of inhibition at 100 µg/mL turned out to be 65 mm in the assay with Rhizopus arrhizus [6], 40 mm in the assay on Aspergillus niger [7], 55 mm with Curvularia lunata [8] and 60 mm with Fusarium verticillioides [10].
In turn, `CC1=C2C(=O)N(c3cc(C)on3)c3ccccc3C2N(Cc2ccccc2)C(=S)N1c1cc(C)on1` (stereo not given) displayed an inhibition zone (IZ) in [1] of 30 mm. In addition, the MIC was 18 µg/mL (≈ 36.2 µM) in assay [2]; 25 µg/mL (≈ 50.2 µM) against Staphylococcus aureus; 20 µg/mL (≈ 40.2 µM) in the assay on Pseudomonas aeruginosa; 15 µg/mL (≈ 30.1 µM) in the assay with Klebsiella aerogenes; 22 µg/mL (≈ 44.2 µM) against Bacillus subtilis; 18 µg/mL (≈ 36.2 µM) in [11]. Moreover, the zone of inhibition at 30 µg/mL with Aspergillus niger [3] was determined as 31 mm; with Curvularia lunata [4], 30 mm; with Fusarium verticillioides [5], 32 mm; in the assay on Rhizopus arrhizus [12], 35 mm. This compound displayed an LC90 in the assay with Culex quinquefasciatus of 1.59 µg/mL (≈ 3.2 µM). Also, the LC50 in the assay on Culex quinquefasciatus came out at 2.27 µg/mL (≈ 4.56 µM). Moreover, the zone of inhibition at 100 µg/mL in the assay on Rhizopus arrhizus [6] turned out to be 59 mm; in the assay on Aspergillus niger [7], 61 mm; in the assay with Curvularia lunata [8], 55 mm; with Fusarium verticillioides [10] it was 55 mm.
